This is an account of results in patent US11091429B2, “Organic compounds” (Givaudan SA, priority 2012, dated 2021).

One assay is described as follows: Tasting in soy sauce. As to the method: (§1) The following formulations were prepared and tasted by trained panelists.
Salt level pure product between 5-40%
Salt level in application 0.3-1.0%
(§2) Samples were prepared and evaluated by expert tasters. Tasters were asked to describe the samples focusing on authentic taste, mouthfeel, fullness, salty-ness, salivation, umami, sweetness, juiciness, richness, long lastingness and fattiness.
Test on Kikkoman Soy Sauce Low Salt
Base is Kikkoman soy sauce
(§3) Samples were prepared and evaluated by expert tasters. Tasters were asked to describe the samples focusing on authentic taste, mouthfeel, fullness, salivation, salty-ness, umami, sweetness, juiciness, richness, long lastingness and fattiness.

The nature of assay [1]: Tasting in low fat mayonnaise. The protocol:
as §1
Low fat Mayonnaise (27% Fat, 9% carbohydrates (of which 5% sugar), 1.4% salt)
as §2
Calve 60% Reduced Fat Mayonnaise
Base is Calve Mayonnaise 60% reduced fat (market Product)
as §3
Low fat Mayonnaise (27% Fat)

Assay [2] is described as follows: Tasting in low fat salad dressing. Conditions: 0.5 ppm in low fat salad dressing (13.6% fat). The protocol: as §1
low fat salad dressing (13.6% Fat, 8%, carbohydrates (of which 5.3% sugar))
as §2
Calve Salad Dressing Low Fat (13.6% Fat):
Base is Calve salad dressing (market product)
as §3
Low fat salad dressing (13.6% Fat)

The nature of a further assay: Tasting of baked pizza. The conditions noted are these: 0.5 PPM in the crust and 0.5 PPM in the tomato sauce, baked at 200 degrees Celsius. As to the method: as §1
Differentiator high temperature 100-250 degrees Celsius in hot air baking process
C18:2 gaba @ 0.5 PPM in the crust and @ 0.5 PPM in the tomato sauce
The pizza was topped off with cheese and baked in a hot air oven @ 200 degrees Celsius

The nature of assay [3]: Tasting on air expanded base. Conditions: 3% fat, cheese seasoning. As to the method:
as §1
An air expanded base (Rice, wheat, Tapioca, potato, salt, sugar, modified starch), containing 3% fat and flavored with cheese seasoning containing salt, MSG, dairy, organic acids, sugars and flavor. The following compounds were added to the base at the indicated levels and the tasting results are reported: […]

The nature of assay [4]: Tasting in UHT milk, cream flavoured. The conditions noted are these: 2 ppm, cream flavour 0.03%. The protocol:
The following tests were carried out on dairy products processed by fermentation, pasteurization or UHT. The products contain fat, protein and calcium.
UHT Milk Cream Flavoured, Non Sweetened and Different Fat Levels
In a UHT milk containing 0%, 1.5% and 3% fat, flavoured with a proprietary cream flavour closed at 0.03% C18:2 gaba was added at 2 ppm.
Samples were evaluated by expert tasters.
Tasters were asked to describe the samples focusing on authentic taste, mouthfeel, fullness, salivation, sweetness, juiciness, richness, long lastingness and fattiness. The results are presented below:—

Assay [5] can be described thus: Tasting in vanilla flavoured milk 3.0% fat. Conditions: 2 ppm, 4% sugar, vanillin 10 ppm, vanilla extract 0.03%. The protocol: Vanilla Flavoured Milk 3.0% Fat
In a 3% fat milk drink, sweetened with 4% sucrose by weight, flavoured with Vaniline @ 10 ppm and a Vanilla extract @ 0.03% C18:2-gaba, C18:1-ACOA and C18:1-glu were added at 0.5 or 2 ppm.
(§4) Samples were evaluated by expert tasters. Tasters were asked to describe the samples focusing on authentic taste, mouthfeel, fullness, salivation, sweetness, juiciness, richness, long lastingness and fattiness.
Base: Milk 3% fat, 4% sugar, vanillin 10 ppm, vanilla extract 0.03%

The nature of the next assay: Test in 3 in 1 coffee. Conditions: 1 ppm, 3-in-1 coffee beverage, sucrose 13.2%, creamer (2.1% fat). As to the method:
In a 3 in 1 Coffee beverage from Nestle (market product) sweetened with sucrose 13.2% and containing creamer (2.1% fat) C18:2-gaba was added.
as §4
Base is 3-in-1 Coffee beverage (market product) sweetened with sucrose and containing creamer with fat

Assay [6] can be described thus: Tasting in mango juice drink, 1% clear mango juice. Conditions: 8% sucrose, 0.1% citric acid, mango flavour 0.05%. Summed up: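 Expert tasters described a still beverage of water, 8% sucrose, 0.1% citric acid, 1% clear mango juice and mango flavour at 0.05%. C18:2-gaba and C18:2-Pro were added separately and in combination. Attributes scored included authentic taste, mouthfeel, juiciness, salivation, sweetness, umami and long lastingness.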

The nature of assay [7]: Tasting in strawberry drink. The conditions noted are these: 2 ppm; 7% sucrose, 0.1% citric acid, strawberry flavour 0.015%. Summed up: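 Strawberry drink base (water, 7% sucrose, 0.1% citric acid, 0.015% proprietary strawberry flavour) served as matrix for descriptive evaluation. Expert panel rated umami, sweetness, saltiness, salivation, juiciness, richness, fullness, fattiness, mouthfeel, authentic taste and long-lastingness.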

A short description of assay [8]: Test in chocolate flavoured drink. The conditions noted are these: 2 ppm; water, 4% sucrose, chocolate flavour 0.03%. As to the method:
as §2
Test in Chocolate Flavoured Drink:
Base: Water, 4% sucrose, proprietary chocolate flavor at 0.03%
(§5) Samples were evaluated by expert tasters. Tasters were asked to describe the samples focusing on authentic taste, mouthfeel, fullness, salty-ness, salivation, umami, sweetness, juiciness, richness, long lastingness and fattiness.
Test in Chocolate Flavoured Drink Flavoured
Base: Water, 4% sucrose, proprietary chocolate flavour @ 0.03%

Assay [9] is described as follows: Test in peach flavoured drink. The conditions noted are these: 1 ppm; water, 8% sugar, 0.1% citric acid, peach flavour 0.05%. As to the method:
as §2
Test in Peach Flavoured Drink:
Base is water, 8% sugar, 0.1% citric acid, and proprietary peach flavour at 0.05%
as §5
Comparison in a Peach Drink
Base is water, 8% sugar, 0.1% citric acid, proprietary peach flavour at 0.05%
Samples were evaluated by expert tasters. Tasters were asked to describe the samples focusing on authentic taste, mouthfeel, fullness, salivation, salty-ness, umami, sweetness, juiciness, richness, long lastingness and fattiness.

A short description of assay [10]: Test in pineapple flavoured drink. Conditions: 1 ppm; water, 8% sugar, 0.1% citric acid, pineapple flavour 0.03%. As to the method:
as §2
Test in Pineapple Flavoured Drink:
Base is water, 8% sugar, 0.1% citric acid and proprietary pineapple flavour at 0.03%
as §5

Structures are written as SMILES.

On to `CCCCC/C=C\C/C=C\CCCCCCCC(=O)NCCCC(=O)O` [C18:2-gaba], for which the tasting result in the assay “Tasting in soy sauce” (0.5 ppm in 1% diluted salt reduced kikoman soy sauce (9% salt)) was “stronger, more umami, long lasting, richer”; in the assay “Tasting in soy sauce” (0.5 ppm in Kikkoman soy sauce low salt) it was “much more salty, sweet and long lasting”; in the assay “Tasting in soy sauce” (0.5 ppm in pure salt reduced kikoman soy sauce (9% salt)), “strong in body and mouthfeel, and more salty”; in assay [1] (0.5 ppm in Calve Mayonnaise 60% reduced fat) it was “full, rich, creamy, more egg yolk taste”; in [1] (0.5 ppm in low fat mayonnaise (27% fat)) it was “creamy, thick mouthfeel with a full fat impression”; in assay [2], “much fuller, creamy, rich, less acidic”. The tasting result in assay [2] (listed as C18:2 gaba) was “better mouthfeel that was impressively creamy”; in the assay “Tasting of baked pizza” it was “The crust was less dry, more succulent and the tomato was richer, sweeter and the total lingering aftertaste was very rich and pleasant”; in assay [3] (0.5 ppm on air expanded base), “Increased dairy, cheese”; in [3] (1 ppm on air expanded base), “Fatty full, cheesy, cheese crust, long lasting, cover base”; in assay [4] (UHT milk 0% fat), “Very creamy, milky, long lasting”; in assay [4] (UHT milk 1.5% fat) it was “very creamy, milky, long lasting, salivating”. In addition, the tasting result in [4] (UHT milk 3.0% fat) was “very creamy, milky, long lasting, taste like whipped cream”; in assay [5], “beany, fatty, authentic, sweet”; in “Test in 3 in 1 coffee”, “very nice mouthfeel effect, creamy as if coffee creamer is added, more sweet”; in [6] (1 ppm) it was “fatty skin-like, very juicy, authentic mango, much more mouthfeel, long lasting mango taste, mouthfeel is close to the full juice product”; in assay [6] (2 ppm) it was “fatty skin like, juicy, authentic”; in assay [7], “fatty mouthfeel, creamy strawberry, fruity and juicy”. Moreover, the tasting result is “full, sweeter, more vanillic, milk chocolate is enhanced, very long lasting” in [8]; “fruity peach, long lasting, juicy and fatty skin like very authentic” in [9]; “very ripe, jammy, long lasting and sweet” in assay [10].
